Laboratory results as given in the supplement of paper PMC10307832.

Tests used:
Test in all cases: relative viability (nuclei count vs DMSO), 5 days (fraction); higher = more cells survive
[1] = compound: C1CSC2=C(C(=O)N1)SC3=C2C=C(C=C3)O [kb NB 142-70] + CC(=O)Nc1cccc(-n2c(=O)n(C3CC3)c(=O)c3c(Nc4ccc(I)cc4F)n(C)c(=O)c(C)c32)c1 [Trametinib] (partner 0.02 µM)
Outline: (§1)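 Lung cancer cell lines, seeded in 1536-well plates, were treated the following day by pin tool with a single drug or with five library-drug doses (not always all listed) in √10 steps on top of a fixed anchor-drug dose. Cells were fixed and nuclei stained in one step after 5 days, and nuclei were counted. Relative viability is the nuclei count for treated wells divided by that for vehicle wells, reported as medians of duplicate plates.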

[2] = compound: C1CSC2=C(C(=O)N1)SC3=C2C=C(C=C3)O [kb NB 142-70] + Nc1ncn([C@H]2C[C@H](O)[C@@H](CO)O2)c(=O)n1 [Decitabine] (partner 2 µM)
Outline: as §1

[3] = compound: NCC(=O)Nc1ccc(-n2nc(C(F)(F)F)cc2-c2ccc3c(ccc4ccccc43)c2)cc1 + Cc1nc(Nc2ncc(C(=O)Nc3c(C)cccc3Cl)s2)cc(N2CCN(CCO)CC2)n1 [Dasatinib] (partner 0.075 µM)
Outline: as §1

[4] = compound: C1CSC2=C(C(=O)N1)SC3=C2C=C(C=C3)O [kb NB 142-70] + CS(=O)(=O)N1CCN(Cc2cc3nc(-c4cccc5[nH]ncc45)nc(N4CCOCC4)c3s2)CC1 [Pictilisib] (partner 1 µM)
Outline: as §1

[5] = compound: NCC(=O)Nc1ccc(-n2nc(C(F)(F)F)cc2-c2ccc3c(ccc4ccccc43)c2)cc1 + CC1(C)CCC(c2ccc(Cl)cc2)=C(CN2CCN(c3ccc(C(=O)NS(=O)(=O)c4ccc(N[C@H](CCN5CCOCC5)CSc5ccccc5)c(S(=O)(=O)C(F)(F)F)c4)cc3)CC2)C1 [Navitoclax] (partner 0.5 µM)
Outline: as §1

Cell Line	relative viability ([1]; first compound 0.1 µM)	relative viability ([1]; first compound 1 µM)	relative viability ([1]; first compound 3.162 µM)	relative viability ([2]; first compound 0.1 µM)	relative viability ([2]; first compound 1 µM)	relative viability ([2]; first compound 3.162 µM)	relative viability ([3]; first compound 0.02 µM)	relative viability ([3]; first compound 0.06325 µM)	relative viability ([3]; first compound 0.2 µM)	relative viability ([3]; first compound 0.6325 µM)	relative viability ([3]; first compound 2 µM)	relative viability ([4]; first compound 0.1 µM)	relative viability ([4]; first compound 1 µM)	relative viability ([4]; first compound 3.162 µM)	relative viability ([5]; first compound 0.02 µM)	relative viability ([5]; first compound 0.06325 µM)	relative viability ([5]; first compound 0.2 µM)	relative viability ([5]; first compound 0.6325 µM)	relative viability ([5]; first compound 2 µM)
NCI-H2342	0.804	0.857	0.903	0.66	0.694	0.748	0.313	0.331	0.312	0.285	0.305	–	–	–	–	–	–	–	–
HCC-15	0.373	0.355	0.444	0.618	0.694	0.553	0.619	0.709	0.651	0.632	0.673	0.746	0.79	0.56	0.746	0.731	0.716	0.716	0.693
A-427	0.841	0.764	0.726	0.579	0.568	0.55	–	0.692	0.724	0.682	0.672	0.816	0.753	0.748	0.798	0.956	0.972	0.95	0.959
NCI-H2228	0.696	0.497	0.235	–	–	–	0.561	0.571	0.523	0.472	0.533	0.494	0.225	0.183	1.14	1.16	0.918	0.976	0.809
NCI-H1734	0.717	0.633	0.531	0.525	0.46	0.348	0.468	0.472	0.513	0.466	0.438	0.429	0.432	0.363	0.889	0.868	0.91	0.787	0.787
PC-14	0.808	0.769	0.799	0.187	0.284	0.193	0.281	0.303	0.297	0.234	0.302	0.679	0.795	0.58	1.1	0.979	1.15	0.917	1.05
NCI-H1915	0.332	0.331	0.37	0.263	0.246	0.23	0.26	0.338	0.341	0.318	0.363	1.01	0.889	0.905	0.771	0.804	0.812	0.767	0.803
NCI-H1666	0.842	0.934	0.776	0.76	0.712	0.603	0.814	0.793	0.881	0.814	0.744	0.405	0.346	0.204	1.14	0.788	1.11	0.913	1.01
HCC-366	0.321	0.274	0.232	0.366	0.407	0.415	0.659	0.644	0.615	0.621	0.624	0.13	0.127	0.092	1.15	1.04	1.02	1.03	1.16
SK-MES-1	0.547	0.631	0.714	0.466	0.338	0.22	0.473	0.372	0.365	0.355	0.406	0.333	0.325	0.235	1.31	1.2	1.29	1.2	1.16
SW 1573	0.541	0.475	0.418	0.526	0.378	0.26	0.471	0.383	0.586	0.471	0.424	0.49	0.337	0.26	1.03	0.969	0.867	0.905	0.942
NCI-H661	0.532	0.578	0.567	0.614	0.588	0.496	0.866	1.01	0.884	0.943	0.925	0.496	0.343	0.351	–	–	–	–	–
PC-3 [JPC-3]	0.685	0.726	0.643	0.831	0.833	0.871	1.08	0.981	1.02	1.03	1.11	0.769	0.768	0.672	0.765	0.842	0.718	0.84	0.79
NCI-H1623	–	–	–	–	–	–	0.544	0.676	0.531	0.488	0.528	–	–	–	–	–	–	–	–
Calu-6	–	–	–	–	–	–	–	–	–	–	–	0.873	0.805	0.457	0.885	0.812	1.09	0.844	0.878
LC-2-ad	0.898	0.937	0.875	0.798	0.769	0.772	0.478	0.677	0.609	0.714	0.577	0.508	0.545	0.311	0.456	0.44	0.484	0.492	0.535
CAL-12T	0.341	0.39	0.241	–	–	–	0.494	0.691	0.454	0.425	0.495	0.563	0.451	0.344	1.17	1.19	1.37	1.2	1.34
RERF-LC-KJ	0.914	0.928	0.805	0.681	0.664	0.482	0.809	0.985	0.835	0.878	0.76	0.504	0.519	0.374	1.04	1.24	1.08	0.715	0.842
